Patent US6258815A, “Specific immunophilin ligands as antiasthmatics and immunosuppressants” (ASTA Medica Aktiengesellschaft, priority 1996, dated 2001)
“Also recorded” adds a separate entry of the source.

Columns and labels:
CypB-CsA-calcineurin = test: displacement of 3H-CsA from CypB-CsA-calcineurin (gel filtration of T cell homogenate); assay type: binding, human; settings: Compound [10 μmol]; 3H-CsA (100 nmol)
Procedure: (§1) To study the interaction with this supermolecule from CsA-CypB or CsA-CypB-calcineurin, the compounds of the general formula I according to the invention were incubated with cell homogenate of a human T cell line containing ^3 H-CsA (100 nmol). After gel filtration on Superose 12, the radioactivity of the eluted fractions was measured and compared with the untreated control. The corresponding displacement of ^3 H-CsA from the supermolecules CypB-CsA and CypB-CsA-calcineurin by the compounds of the general formula I according to the invention is shown in Table 2: […]

CypB-CsA = test: displacement of 3H-CsA from CypB-CsA (gel filtration of T cell homogenate); assay type: binding, human; settings: Compound [10 μmol]; 3H-CsA (100 nmol)
Procedure: as §1

human cyclophilin B = human cyclophilin B (Homo sapiens, UniProt P23284); test: PPlase test (inhibition of peptidyl-prolyl cis/trans-isomerase activity); assay type: biochemical; settings: Compound [10 μmol], human CypB
Procedure: The compounds of the formula (I) according to the invention are distinguished by binding to immunophilins and inhibit their isomerase activity. This prolyl isomerase activity is assayed by an enzyme test conventionally used throughout the world: G. Fischer, H. Bang, A. Schellenberger, Biochim. Biophys. Acta, 791, 87-97, 1984; D. H. Rich et al., J. Med. Chem. 38, 4164-4170, 1995.
[…] This PPlase activity is assayed by an enzyme test conventionally used throughout the world: G. Fischer, H. Bang, C. Mech, Biomed. Biochim. Acta, 43, 1101-1111; G. Fischer, R. Bang, A. Schellenberger, Biochim. Biophys. Acta, 791, 87-97, 1984; D. H. Rich et al., J. Med. Chem. 38, 4164-4170, 1995.
The compounds of the general formula I according to the invention are preincubated together with 10 nmol of CypB for 15 min at 4° C. The enzyme reaction is started after the addition of chymotrypsin and HEPES buffer with the test peptide Suc-Ala-Ala-Pro-Phe-Nan. The change in extinction at 390 nm is then monitored and evaluated. The change in extinction determined by photometry results from two partial reactions: a) the rapid chymotryptic cleavage of the trans-peptide; and b) the […] cis/trans isomerization catalysed by cyclophilins.

FKBP = settings: cited from earlier work
[1] = system: IL-2 gene transcription in T cells; settings: cited from earlier work
[2] = system: cytokines, like IL-2, IL-4 and IL-5; settings: animal experiments; reference substances; cited from earlier work
[3] = system: T cells stimulated with OKT-3; test: IL-2 proliferation test (3H-thymidine incorporation into T cells stimulated with OKT-3); assay type: cell-based; settings: Homo sapiens, T-cell; Compound [10 μmol]; 45 h incubation, OKT-3 1 μg/ml; read-out: CD3-induced inhibition of proliferation in [%]
Procedure: The IL-2 proliferation test is based on the incorporation of ^3 H-thymidine into T cells stimulated with OKT-3 (human anti-CD3 antibodies) and is performed as follows:
100,000 T cells are inoculated into 150 μl of culture medium per well in microtitre plates, stimulated by the addition of OKT-3 (1 μg/ml) and incubated for 45 h with each of the compounds of the general formula I according to the invention. After this incubation period, 10 μl of the ^3 H-thymidine solution (0.5 μCi) are pipetted into each well. Incubation is then carried out for 6 h at 37° C. in a 5% CO2 atmosphere. After the cells have been harvested, the radioactivity is quantified in a β-counter. The corresponding CD3-induced inhibition of proliferation by the compounds of the general formula I according to the invention is shown in Table 3: […]

Chain of human cyclophilin B (P23284 34-216): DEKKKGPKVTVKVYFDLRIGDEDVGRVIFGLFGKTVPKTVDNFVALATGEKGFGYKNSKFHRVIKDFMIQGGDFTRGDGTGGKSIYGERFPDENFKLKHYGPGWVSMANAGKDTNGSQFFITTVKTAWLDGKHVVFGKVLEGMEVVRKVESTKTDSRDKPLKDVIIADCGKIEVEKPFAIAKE

Row | Structure (SMILES) | Displacement from CypB-CsA-CN in [%] (CypB-CsA-calcineurin) | Displacement from CypB-CsA in [%] (CypB-CsA) | inhibition at 10 µM (human cyclophilin B) [%] | binding affinity to receptor protein FKBP (FKBP) | inhibition of gene transcription including the IL-2 gene [1] | blocking of cytokines, like IL-2, IL-4 and IL-5 [2] | inhibition [3] [%]
1 | COC(=O)C1Cc2ccccc2N1C(=O)Cc1ccc(OC)cc1 (racemic) [Example 9, N-(4-methoxyphenylacetyl)indoline-2-(R,S)-carboxylic acid methyl ester] | 37 | 39 | 0 to 20 |  |  |  | 
2 | C=CC[C@@H]1/C=C(\C)C[C@H](C)C[C@H](OC)[C@H]2O[C@@](O)(C(=O)C(=O)N3CCCC[C@H]3C(=O)O[C@H](/C(C)=C/[C@@H]3CC[C@@H](O)[C@H](OC)C3)[C@H](C)[C@@H](O)CC1=O)[C@H](C)C[C@@H]2OC [FK 506] |  |  |  | bind with high affinity | inhibit the transcription of a number of genes, including the IL-2 gene | blocking of various cytokines, like IL-2, IL-4 and IL-5; also recorded: exhibit the blocking of cytokines, like IL-2, IL-4 and IL-5 | 
3 | COC(=O)[C@H](CCCCN)NC(=O)C1Cc2ccccc2N1C(=O)C1CCNCC1 (stereo partly drawn) [Example 2, N-[piperidyl-4-carbonyl]indoline-2-(R,S)-carboxylic acid [S-(ε-NH2)lysinemethyl ester]amide] | -53 | 45 | 0 to 20 |  |  |  | 40
4 | COC(=O)[C@H](CCCCNC(=O)OCc1ccccc1)NC(=O)C1Cc2ccccc2N1C(=O)C1CCN(C(=O)Cc2ccc(OC)cc2)CC1 (stereo partly drawn) [Example 13, N-[N'-(4-methoxyphenylacetyl)piperidyl-4-carbonyl]indoline-2-(R,S)-carboxylic acid [S-(N-ε-Z)lysinemethyl ester]amide] | -16 | 46 | 0 to 20 |  |  |  | 66
5 | CC(C)(C)OC(=O)N1c2ccccc2CC1C(=O)N1CCN(CC(=O)N2CCOCC2)CC1 (racemic) [Example 11, N-Boc-indoline-2-(R,S)-carboxylic acid (piperazinoacetic acid morpholide)amide] | 0 | -28 | 0 to 20 |  |  |  | 9
6 | COC(=O)[C@H](CCCCNC(=O)OCc1ccccc1)NC(=O)C1Cc2ccccc2N1C(=O)OC(C)(C)C (stereo partly drawn) [Example 6, 1-Boc-indoline-2-(R,S)-carboxylic acid [S-(N-ε-Z)lysinemethyl ester]amide] | 7 | 0 | 20 to 40 |  |  |  | 84
7 | COC(=O)C1Cc2ccccc2N1C(=O)C1CCN(C(=O)Cc2ccc(OC)cc2)CC1 (racemic) [Example 8, N-[N'-(4-methoxyphenylacetyl)piperidyl-4-carbonyl]indoline-2-(R,S)-carboxylic acid methyl ester] | 8 | 0 | 0 to 20 |  |  |  | 
8 | COC(=O)[C@H](CCCCNC(=O)OC(C)(C)C)NC(=O)C1Cc2ccccc2N1C(=O)C1Cc2ccccc2N1C(=O)OC(C)(C)C (stereo partly drawn) [Example 3, N-[1-Boc-indoline-2-(R,S)-carbonyl]indoline-2-(R,S)-carboxylic acid [S-(N-ε-Boc)lysinemethyl ester]amide] | 22 | 14 | 0 to 20 |  |  |  | 82
9 | COC(=O)[C@H](Cc1ccccc1)NC(=O)C1Cc2ccccc2N1C(=O)OC(C)(C)C (stereo partly drawn) [Example 7, 1-Boc-indoline-2-(R,S)-carboxylic acid (S-phenylalanine methyl ester)amide] | 0 | 38 | 0 to 20 |  |  |  | 7
10 | COC(=O)[C@H](CCCCNC(=O)OCc1ccccc1)NC(=O)C1Cc2ccccc2N1C(=O)C1Cc2ccccc2N1C(=O)OC(C)(C)C (stereo partly drawn) [Example 5, N-[1-Boc-indoline-2-(R,S)-carbonyl]indoline-2-(R,S)-carboxylic acid [S-(N-ε-Z)lysinemethyl ester]amide] | 20 | 16 | 0 to 20 |  |  |  | 92
11 | COC(=O)[C@H](CCCCN)NC(=O)C1Cc2ccccc2N1C(=O)C1Cc2ccccc2N1 (stereo partly drawn) [Example 4, N-[indoline-2-(R,S)-carbonyl]indoline-2-(R,S)-carboxylic acid [S-(ε-NH2)lysinemethyl ester]amide] | -42 | 33 | 0 to 20 |  |  |  | 38
12 | CO[C@H]1C[C@@H]2CC[C@@H](C)[C@@](O)(O2)C(=O)C(=O)N2CCCC[C@H]2C(=O)O[C@H]([C@H](C)C[C@@H]2CC[C@@H](O)[C@H](OC)C2)CC(=O)[C@H](C)/C=C(\C)[C@@H](O)[C@@H](OC)C(=O)[C@H](C)C[C@H](C)/C=C/C=C/C=C/1C [rapamycin] |  |  |  |  |  | exhibit the blocking of cytokines, like IL-2, IL-4 and IL-5 | 
13 | COC(=O)[C@H](CCCCNC(=O)OC(C)(C)C)NC(=O)C1Cc2ccccc2N1C(=O)C1CCN(C(=O)OC(C)(C)C)CC1 (stereo partly drawn) [Example 1, N-[1-Boc-piperidyl-4-carbonyl]indoline-2-(R,S)-carboxylic acid [S-(N-ε-Boc)lysinemethyl ester]amide] | 45 | 10 | 0 to 20 |  |  |  | 86
14 | CC(C)(C)OC(=O)N1CCC(C(=O)N2c3ccccc3CC2C(=O)N2CCN(CC(=O)N3CCOCC3)CC2)CC1 (racemic) [Example 12, N-[1-Boc-piperidyl-4-carbonyl]indoline-2-(R,S)-carboxylic acid (piperazinoacetic acid morpholide)amide] | -25 | 8 | 0 to 20 |  |  |  | 5
15 | CC(C)(C)OC(=O)N1c2ccccc2CC1C(=O)Nc1ccncc1 (racemic) [Example 10] | 0 | -58 | 0 to 20 |  |  |  | 6
